Reference: ChEMBL document CHEMBL5528088, “Design and Synthesis of Cyclolipopeptide Mimics of Dysoxylactam A and Evaluation of the Reversing Potencies against P-Glycoprotein-Mediated Multidrug Resistance” (J Med Chem, 2024)
Values after ≈ are worked out from the molar mass of the structure shown. Active and inactive are the calls of the source. The calls are words filed in the database; no cut-off is given here.

What was measured:
KBv200 [1] = assay: Inhibition of cell proliferation in human KBv200 cells assessed as inhibition of VNR at 10 uM incubated for 72 hrs in presence of VNR by SRB assay relative to control; format: functional
KBv200 [2] = assay: Cytotoxicity against human KBv200 cells at 10 uM incubated for 72 hrs by SRB assay relative to control; format: functional
KBv200 [3] = assay: Reversal fold, ratio of VNR IC50 to VNR IC50 in presence of test compound for human KBv200 cells incubated for 72 hrs by SRB assay; format: functional
KBv200 [4] = assay: Reversal fold, ratio of VNR IC50 to VNR IC50 in presence of test compound for reversal effect on P-gp-mediated multidrug resistance in human KBv200 cells incubated for 72 hrs by SRB assay; format: functional
KBv200 [5] = assay: Reversal fold, ratio of PTX IC50 to PTX IC50 in presence of test compound for reversal effect on P-gp-mediated multidrug resistance in human KBv200 cells incubated for 72 hrs by SRB assay; format: functional
KBv200 [6] = assay: Reversal fold, ratio of ADR IC50 to ADR IC50 in presence of test compound for reversal effect on P-gp-mediated multidrug resistance in human KBv200 cells incubated for 72 hrs by SRB assay; format: functional
NCI/ADR-RES [7] = assay: Reversal fold, ratio of VNR IC50 to VNR IC50 in presence of test compound for reversal effect on P-gp-mediated multidrug resistance in human NCI/ADR-RES cells incubated for 72 hrs by SRB assay; format: functional
NCI/ADR-RES [8] = assay: Reversal fold, ratio of PTX IC50 to PTX IC50 in presence of test compound for reversal effect on P-gp-mediated multidrug resistance in human NCI/ADR-RES cells incubated for 72 hrs by SRB assay; format: functional
NCI/ADR-RES [9] = assay: Reversal fold, ratio of ADR IC50 to ADR IC50 in presence of test compound for reversal effect on P-gp-mediated multidrug resistance in human NCI/ADR-RES cells incubated for 72 hrs by SRB assay; format: functional
KBv200 [10] = assay: Effect on P-gp level in human KBv200 cells incubated for 24 hrs by qRT-PCR analysis; format: functional, cell-based
KBv200 [11] = assay: Inhibition of ADR uptake in human KBv200 cells at 10 uM incubated for 10 mins by flow cytometry; format: functional, cell-based
KBv200 [12] = assay: Inhibition of calcein AM uptake in human KBv200 cells at 10 uM incubated for 10 mins by flow cytometry; format: functional, cell-based
KBv200 [13] = assay: Inhibition of Rho-123 uptake in human KBv200 cells at 10 uM incubated for 10 mins by flow cytometry; format: functional, cell-based
KBv200 [14] = assay: Inhibition of ADR uptake in human KBv200 cells at 10 uM incubated for 10 mins by fluorescence microscopy; format: functional, cell-based
[15] = Inhibition of ADR uptake in human KBv200 cells assessed as ADR accumulation at 1 uM incubated for 10 mins by flow cytometry (reference value: 6.2 %); format: functional; design: scale not given: the % may be the effect or the level left
[16] = Inhibition of ADR uptake in human KBv200 cells assessed as ADR accumulation at 10 uM incubated for 10 mins by flow cytometry (reference value: 6.2 %); format: functional; design: scale not given: the % may be the effect or the level left
KBv200 [17] = assay: Inhibition of ADR efflux in human KBv200 cells incubated for 3 hrs by fluorescence microscopy; format: functional, cell-based
[18] = Inhibition of ADR efflux in human KBv200 cells assessed as ADR accumulation at 1 uM incubated for 3 hrs by flow cytometry (reference value: 25.7 %); format: functional; design: scale not given: the % may be the effect or the level left
[19] = Inhibition of ADR efflux in human KBv200 cells assessed as ADR accumulation at 10 uM incubated for 3 hrs by flow cytometry (reference value: 25.7 %); format: functional; design: scale not given: the % may be the effect or the level left
[20] = target: T1, Broad substrate specificity ATP-binding cassette transporter ABCG2 (Homo sapiens, UniProt Q9UNQ0); assay: Inhibition of BCRP (unknown origin) expressed in HEK293 cells assessed as increase in mitoxantrone accumulation by flow cytometry; format: cell-based
T1 sequence (Q9UNQ0 whole entry): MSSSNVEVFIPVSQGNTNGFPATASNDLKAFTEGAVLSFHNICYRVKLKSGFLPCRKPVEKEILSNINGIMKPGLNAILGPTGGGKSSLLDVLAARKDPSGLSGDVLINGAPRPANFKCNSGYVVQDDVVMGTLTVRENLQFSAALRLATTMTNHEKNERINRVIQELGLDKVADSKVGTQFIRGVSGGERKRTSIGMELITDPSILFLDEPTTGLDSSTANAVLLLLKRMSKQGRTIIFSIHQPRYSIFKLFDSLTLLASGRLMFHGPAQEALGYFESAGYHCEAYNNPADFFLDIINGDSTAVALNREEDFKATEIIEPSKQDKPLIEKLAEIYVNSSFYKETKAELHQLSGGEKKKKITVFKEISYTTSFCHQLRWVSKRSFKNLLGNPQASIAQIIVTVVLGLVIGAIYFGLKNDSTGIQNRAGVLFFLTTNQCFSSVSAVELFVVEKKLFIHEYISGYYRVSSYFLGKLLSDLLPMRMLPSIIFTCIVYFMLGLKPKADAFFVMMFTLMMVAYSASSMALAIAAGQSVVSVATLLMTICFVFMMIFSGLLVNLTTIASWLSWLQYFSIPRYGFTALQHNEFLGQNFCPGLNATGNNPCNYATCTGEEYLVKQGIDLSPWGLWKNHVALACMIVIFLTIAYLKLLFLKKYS

[21] = target: Multidrug resistance-associated protein 1 (Homo sapiens, UniProt P33527); assay: Inhibition of MRP1 (unknown origin) expressed in HEK293 cells assessed as increase in mitoxantrone accumulation by flow cytometry; format: cell-based
Multidrug resistance-associated protein 1, sequence (P33527 whole entry): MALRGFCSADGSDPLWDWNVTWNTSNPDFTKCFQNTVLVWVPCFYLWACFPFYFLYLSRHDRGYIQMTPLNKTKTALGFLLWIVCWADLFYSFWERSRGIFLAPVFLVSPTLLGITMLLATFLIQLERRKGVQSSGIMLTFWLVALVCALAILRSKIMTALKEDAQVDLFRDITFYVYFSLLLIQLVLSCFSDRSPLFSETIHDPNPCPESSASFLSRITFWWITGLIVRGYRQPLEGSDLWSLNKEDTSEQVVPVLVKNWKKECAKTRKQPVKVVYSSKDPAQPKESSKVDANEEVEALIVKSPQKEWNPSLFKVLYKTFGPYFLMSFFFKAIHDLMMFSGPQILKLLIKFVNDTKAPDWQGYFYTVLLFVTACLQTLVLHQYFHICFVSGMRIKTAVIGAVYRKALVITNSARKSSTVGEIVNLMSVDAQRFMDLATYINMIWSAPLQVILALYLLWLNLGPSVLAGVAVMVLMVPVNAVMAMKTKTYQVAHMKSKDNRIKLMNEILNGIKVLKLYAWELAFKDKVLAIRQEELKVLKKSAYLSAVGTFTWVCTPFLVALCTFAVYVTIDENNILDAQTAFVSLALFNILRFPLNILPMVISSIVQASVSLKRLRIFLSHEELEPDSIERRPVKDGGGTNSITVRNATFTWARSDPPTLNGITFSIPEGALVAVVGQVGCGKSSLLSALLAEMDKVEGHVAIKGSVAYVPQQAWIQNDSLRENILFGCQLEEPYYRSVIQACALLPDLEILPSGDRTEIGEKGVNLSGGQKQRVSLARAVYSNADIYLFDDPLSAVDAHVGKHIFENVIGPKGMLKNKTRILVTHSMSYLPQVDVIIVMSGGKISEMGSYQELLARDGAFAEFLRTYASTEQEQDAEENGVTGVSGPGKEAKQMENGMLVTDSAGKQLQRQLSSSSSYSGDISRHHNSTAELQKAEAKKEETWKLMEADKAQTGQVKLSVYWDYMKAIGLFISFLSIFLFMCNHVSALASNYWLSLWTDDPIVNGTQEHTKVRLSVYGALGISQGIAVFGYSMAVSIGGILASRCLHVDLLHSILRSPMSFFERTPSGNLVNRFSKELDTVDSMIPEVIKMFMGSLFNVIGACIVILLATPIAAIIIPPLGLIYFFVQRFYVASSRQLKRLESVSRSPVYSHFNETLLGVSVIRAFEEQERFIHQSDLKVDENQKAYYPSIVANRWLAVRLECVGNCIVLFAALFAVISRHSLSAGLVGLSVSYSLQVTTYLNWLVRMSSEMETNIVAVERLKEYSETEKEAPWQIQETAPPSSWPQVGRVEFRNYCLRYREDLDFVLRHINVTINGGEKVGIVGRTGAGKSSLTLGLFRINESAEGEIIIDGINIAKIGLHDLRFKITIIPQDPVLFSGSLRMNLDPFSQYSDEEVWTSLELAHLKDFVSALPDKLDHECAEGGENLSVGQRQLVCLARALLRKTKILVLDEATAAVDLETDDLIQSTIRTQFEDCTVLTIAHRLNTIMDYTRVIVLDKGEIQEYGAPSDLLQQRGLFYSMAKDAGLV

KBv200 [22] = assay: Effect on P-gp level in human KBv200 cells at 1 to 10 uM incubated for 24 hrs by Western blot analysis; format: functional, cell-based; settings: dose 1-10 µM
NCI/ADR-RES [23] = assay: Effect on P-gp level in human NCI/ADR-RES cells at 1 to 10 uM incubated for 24 hrs by Western blot analysis; format: functional, cell-based; settings: dose 1-10 µM
[24] = Lipophilicity, logD of compound at pH 7.4; format: physicochemical; settings: buffer
[25] = Aqueous solubility of compound at neutral pH; format: physicochemical
[26] = Half life in Sprague-Dawley rat at 1 mg/kg, iv measured for 24 hrs by LC-MS analysis; format: ADME, organism-based; settings: in vivo
[27] = AUClast in Sprague-Dawley rat at 1 mg/kg, iv measured for 24 hrs by LC-MS analysis; format: ADME, organism-based; settings: in vivo
[28] = AUC (infinity) in Sprague-Dawley rat at 1 mg/kg, iv measured for 24 hrs by LC-MS analysis; format: ADME, organism-based; settings: in vivo
[29] = MRT (infinity) in Sprague-Dawley rat at 1 mg/kg, iv measured for 24 hrs by LC-MS analysis; format: ADME, organism-based; settings: in vivo
[30] = Volume of distribution at steady state in Sprague-Dawley rat at 1 mg/kg, iv measured for 24 hrs by LC-MS analysis; format: ADME, organism-based; settings: in vivo, read-out: Vdss
[31] = Half life in Sprague-Dawley rat at 30 mg/kg, po measured for 24 hrs by LC-MS analysis; format: ADME, organism-based; settings: in vivo
[32] = Tmax in Sprague-Dawley rat at 30 mg/kg, po measured for 24 hrs by LC-MS analysis; format: ADME, organism-based; settings: in vivo
[33] = Cmax in Sprague-Dawley rat at 30 mg/kg, po measured for 24 hrs by LC-MS analysis; format: ADME, organism-based; settings: in vivo
[34] = AUClast in Sprague-Dawley rat at 30 mg/kg, po measured for 24 hrs by LC-MS analysis; format: ADME, organism-based; settings: in vivo
[35] = AUC (infinity) in Sprague-Dawley rat at 30 mg/kg, po measured for 24 hrs by LC-MS analysis; format: ADME, organism-based; settings: in vivo
[36] = MRT (infinity) in Sprague-Dawley rat at 30 mg/kg, po measured for 24 hrs by LC-MS analysis; format: ADME, organism-based; settings: in vivo
[37] = Oral bioavailability in Sprague-Dawley rat at 30 mg/kg measured for 24 hrs by LC-MS analysis; format: ADME, organism-based; settings: in vivo
KBv200 [38] = assay: Antitumor activity against human KBv200 cells xenografted in Balb/cA nude mouse assessed as decrease in tumor size at 75 mg/kg, ip administered upto day 8 and measured for 14 days; format: functional, organism-based; settings: time 14.0 day
KBv200 [39] = assay: Antitumor activity against human KBv200 cells xenografted in Balb/cA nude mouse assessed as decrease in tumor volume at 75 mg/kg, ip administered upto day 8 and measured for 14 days in presence of VNR; format: functional, organism-based; settings: time 14.0 day
KBv200 [40] = assay: Antitumor activity against human KBv200 cells xenografted in Balb/cA nude mouse assessed as decrease in tumor weight at 75 mg/kg, ip administered upto day 8 and measured for 14 days in presence of VNR; format: functional, organism-based; settings: time 14.0 day
[41] = Toxicity in Balb/cA nude mouse xenografted with human KBv200 cells assessed as change in body weight at 75 mg/kg, ip administered upto day 8 and measured for 14 days; format: organism-based; settings: in vivo, 336 h, time 14 day
[42] = Toxicity in Balb/cA nude mouse xenografted with human KBv200 cells assessed as animal mortality at 75 mg/kg, ip administered upto day 8 and measured for 14 days; format: organism-based; settings: in vivo, 336 h, time 14 day

## CC[C@H](C)C1OC(=O)[C@H](C(C)C)NC(=O)CCCCCCC[C@H](O)[C@@H](C)C[C@@H]1C (some centres undefined)
KBv200 [1]
  inhibition at 10 µM: 99.5%
KBv200 [2]
  Activity: 9.7%
KBv200 [3]
  Ratio IC50: 85
KBv200 [4]
  Ratio IC50: 64
KBv200 [5]
  Ratio IC50: 49.6
KBv200 [6]
  Ratio IC50: 12.4
NCI/ADR-RES [7]
  Ratio IC50: 65.3
NCI/ADR-RES [8]
  Ratio IC50: 109.2
NCI/ADR-RES [9]
  Ratio IC50: 23.9
KBv200 [10]
  Activity: inactive
KBv200 [11]
  inhibition: inactive
KBv200 [12]
  inhibition: Active
KBv200 [13]
  inhibition: Active
KBv200 [14]
  inhibition: inactive
[15]
  Activity: 7.4%
[16]
  Activity: 91.7%
KBv200 [17]
  inhibition: Active
[18]
  Activity: 29%
[19]
  Activity: 90.6%
[20]
  inhibition (INH): Active
[21]
  inhibition (INH): Active

## COc1ccc(CCN(C)CCCC(C#N)(c2ccc(OC)c(OC)c2)C(C)C)cc1OC (centres undefined) [VERAPAMIL]
KBv200 [1]
  inhibition at 10 µM: 97.5%
KBv200 [2]
  Activity: 5%
KBv200 [3]
  Ratio IC50: 59.5
KBv200 [11]
  inhibition: inactive
KBv200 [12]
  inhibition: inactive
KBv200 [13]
  inhibition: Active

## CC(C)[C@@H]1NC(=O)CCCCCCCCCCCC(=O)N[C@@H](Cc2ccccc2)COC1=O
KBv200 [1]
  inhibition at 10 µM: 96.9%
KBv200 [2]
  Activity: 2.7%
KBv200 [3]
  Ratio IC50: 124
KBv200 [4]
  Ratio IC50: 102.4
KBv200 [5]
  Ratio IC50: 49.6
KBv200 [6]
  Ratio IC50: 12.1
NCI/ADR-RES [7]
  Ratio IC50: 133.4
NCI/ADR-RES [8]
  Ratio IC50: 159.9
NCI/ADR-RES [9]
  Ratio IC50: 33.9
KBv200 [22]
  Activity: inactive
NCI/ADR-RES [23]
  Activity: inactive
KBv200 [10]
  Activity: inactive
KBv200 [11]
  inhibition: inactive
KBv200 [12]
  inhibition: Active
KBv200 [13]
  inhibition: Active
KBv200 [14]
  inhibition: inactive
[15]
  Activity: 6.6%
[16]
  Activity: 86.4%
KBv200 [17]
  inhibition: Active
[18]
  Activity: 33.8%
[19]
  Activity: 88.6%
[20]
  inhibition (INH): Active
[21]
  inhibition (INH): Active
[24]
  logD: 5
[25]
  solubility: 0.64 µg/mL (≈ 1.4 µM)
[26]
  half-life: 65.4 min
[27]
  AUC(0-t) at 24 h: 1260 ng·h/mL
[28]
  AUC: 1263 ng·h/mL
[29]
  MRT inf: 45 min
[30]
  Vd: 1.53 L/kg
[31]
  half-life: 143 min
[32]
  Tmax: 15 min
[33]
  Cmax: 34.4 ng/mL
[34]
  AUC(0-t) at 24 h: 32.3 ng·h/mL
[35]
  AUC(0-inf): 43.4 ng·h/mL
[36]
  MRT inf: 3.11 h
[37]
  bioavailability: 0.09%
KBv200 [38]
  Activity: Active
KBv200 [39]
  Activity: Active
KBv200 [40]
  Activity: Active
[41]
  Activity: Non-Toxic
[42]
  Activity: Non-Toxic
